From patent US12006330B2, “Substituted macrocyclic compounds and related methods of treatment” (Alkermes, Inc., priority 2020, dated 2024) come the findings set out here.

The structures appear in SMILES notation.

Data set [1] has as its target T1, human orexin-2 receptor (OX2R) (Homo sapiens, UniProt O43614).
T1 construct: expressed in transfected cells
T1 sequence (O43614 1-444): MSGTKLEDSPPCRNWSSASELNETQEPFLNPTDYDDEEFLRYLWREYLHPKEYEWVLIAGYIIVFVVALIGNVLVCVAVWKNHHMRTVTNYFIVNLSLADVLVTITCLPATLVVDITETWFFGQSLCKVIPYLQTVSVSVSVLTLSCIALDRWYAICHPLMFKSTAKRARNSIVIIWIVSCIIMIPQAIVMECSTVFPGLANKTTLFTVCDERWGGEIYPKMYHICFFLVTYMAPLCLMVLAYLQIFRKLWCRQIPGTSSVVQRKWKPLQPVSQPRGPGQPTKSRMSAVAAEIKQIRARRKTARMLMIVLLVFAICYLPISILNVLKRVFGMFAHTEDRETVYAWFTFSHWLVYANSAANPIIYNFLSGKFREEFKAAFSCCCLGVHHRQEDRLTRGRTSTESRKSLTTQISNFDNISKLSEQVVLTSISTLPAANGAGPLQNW
Nature of the data set: Human OX2R IP1 assay. In kind it is cell-based. The note with it: T-Rex CHO cells stably overexpressing human OX2R; IP1 accumulation; 1 hr at 37 degrees C; mean EC50. The protocol: T-Rex CHO cells stably overexpressing the human orexin-2 receptor (OX2R) were induced overnight with 1 μg/mL of doxycycline in a T225 flask. 24 hours post induction, cells were lifted with accutase and plated into a 384-well proxy plate at 30,000 cells/well. Cells were then treated with different test compounds in 1× stimulation buffer containing 10 mM Hepes, 1 mM CaCl2), 0.5 mM MgCl2, 4.2 mM KCl, 146 mM NaCl, 5.5 mM glucose, and 50 mM LiCl, pH 7.4, for 1 hr at 37 degrees C. Following incubation, the reaction was terminated by the addition of detection mix, which is composed of IP1-d2 and anti-IP1-cryptate diluted in lysis buffer as well as 1× stimulation buffer. The plates were allowed to incubate for 1 hour at room temperature and were then read in the EnVision® multimode plate reader, measuring inositol phosphate levels.
Cisbio IP1 is a cell-based functional assay quantifying the accumulation of inositol monophosphate (IP), a metabolite released as a result of orexin 2 receptor activation through the phospholipase C-Gq signaling pathway. This is a competitive immunoassay in which the IP1 produced by the cells upon receptor activation competes with the IP1 analog coupled to the d2 fluorophore (acceptor) for binding to an anti-IP1 monoclonal antibody labeled with Eu cryptate (donor). The measured HTRF-FRET based signal is inversely proportional to the IP1 concentration produced.
The EC50 values reported in Table 2 were obtained according to the human OX2R IP1 assay described above. Data are the mean EC50 values S.E.M. Reference Compound A is methyl (2R,3S)-3-((methylsulfonyl)amino)-2-(((cis-4-phenylcyclohexyl)oxy)methyl)-piperidine-1-carboxylate (Example 5 of PCT publication No. WO2017/135306). Reference Compound B is N-((2S,3S)-1-(2-hydroxy-2-methylpropanoyl)-2-((2,3′,5′-trifluorobiphenyl-3-yl)methyl)pyrrolidin-3-yl)methanesulfonamide (Example 483 of PCT publication No. WO2019/027058).

Another data set relates to MDR1. Kind of data set: MDCK-MDR1 permeability assay. In kind it is in vitro ADME. The note with it: dog, MDCK-MDR1, MDCK-MDR1 cells; for efflux ratio at 2 h, 3 μM: Papp B→A divided by Papp A→B, read-out: Efflux ratio (ER); for Papp A→B at 2 h, 3 μM: test compound 3 μM, 2 hours at 37 degrees C, apical to basolateral. In a few lines:
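Receiver and donor compartments were analysed by LC-MS/MS after a 2 h incubation at 37 °C of 3 μM compound in HBSS on MDCK-MDR1 monolayers, run in both directions with Lucifer Yellow (100 μM) as integrity marker. Apparent permeability came from translocation rate, insert area and initial concentration; B→A/A→B Papp gave the efflux ratio, alongside percent recovery.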

A short description of data set [2]: Hepatocytes stability assay (human hepatocytes). The note with it: both sexes, human, cryopreserved hepatocytes, cryopreserved human hepatocytes (pool of 50 mixed gender); 1 μM test compound; 1×10^6 cell/mL; 37 degrees C; read-out: CLint (μL/min/million cells). Type of data set: in vitro ADME. In a few lines: (§1)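 Compound at 1 μM (0.1% DMSO) was incubated with cryopreserved pooled human hepatocytes, 1×10^6 cells/mL in Krebs-Henseleit buffer, at 37 °C, sampled up to 240 min. Parent depletion by LC-MS/MS; half-life from first-order decay gave CLint, scaled to hepatic clearance by well-stirred model (fu assumed 1) and extraction ratio.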

The test system of the next data set is human hepatocytes. Nature of the data set: Hepatocytes stability assay (human hepatocytes). Type of data set: in vitro ADME. The note with it: human hepatocytes; scaled hepatic clearance divided by liver blood flow (well-stirred model, fu assumed unity). In a few lines:
as §1

For the next data set, the system named is Sprague-Dawley rats. Kind of data set: Assessment of wake promotion in Sprague-Dawley rats (EEG/EMG). Type of data set: in vivo, rat. The note with it: male Sprague-Dawley rats; PO; 3 mpk; dosed at ZT5; 6-hour post-dose period. As for the experimental part:
Wake promotion was assessed using electroencephalography (EEG) and electromyography (EMG) in adult male Sprague-Dawley rats. All rats (Charles River Laboratories, Raleigh, NC, USA) were intraperitoneally implanted with telemetry devices (F50-EEE, Data Sciences International Inc., MN, USA) under isoflurane anesthesia. For EEG, stainless steel screws were implanted over frontal cortex and parietal cortex, and reference screws were placed over cerebellum. Additionally, an electrode was placed in neck muscle for EMG. Rats were given carprofen post-surgery and underwent a 7 to 10-day recovery period. Rats habituated to the experimental room for 7 days and were maintained on a 12-hour light-dark cycle.
EEG and EMG data were recorded using the DSI telemetry system and Ponemah software (Data Sciences International Inc., MN, USA). Sleep-wake stages were scored both manually and with Somnivore, a supervised machine learning software platform, in 10 second epochs. Records were visually inspected as needed post-processing.
All test compounds were dissolved in 5% DMSO and suspended in 95% saline with 0.5% methylcellulose and 0.5% tween. […] Unless otherwise indicated, all compounds were dosed orally. Recordings for each rat were initiated immediately after dosing and lasted for 6 hours post-dose.
Two key endpoints include wakefulness time and cortical activation time. Wakefulness time is derived from the sleep-wake stage analysis. Cortical activation time is based on the duration in which frontal gamma oscillatory activity (30-100 Hz), a key feature of wakefulness, was elevated relative to a pre-treatment baseline. Mean cortical activation time was computed relative to vehicle treatment for the 6-hour post-dose period.

One may read the EC50 as the concentration at which the effect is half-maximal. As usually defined, the Papp A→B is how fast a substance crosses the layer from the apical side. Compound `C[C@@H]1CCN2C(=O)COc3ccccc3[C@H]3CC[C@H](CC3)OCC2[C@H]1NS(C)(=O)=O` (mixture of isomers) [Compound 36] returned a concentration giving a half-maximal response (EC50) in data set [1] below 10 nM. Also, in the data set on MDR1, the efflux ratio at 2 h, 3 μM is above 100 and the Papp A→B at 2 h, 3 μM turned out to be 0.3 ×10⁻⁶ cm/s. For the same compound, in data set [2], the hepatocyte CLint at 1 μM was found to be 17 µL/min/1e6 cells. Moreover, the “Extraction Ratio (ER)” value in the data set with human hepatocytes amounted to 0.71.
Consider `O=C1COc2ccccc2C2CCC(CC2)OC[C@H]2[C@@H](NS(=O)(=O)C3CC3)CCCN12` (stereo in doubt) [Compound 1], for which, in the data set with MDR1, the efflux ratio at 2 h, 3 μM is 6.7 and the Papp A→B at 2 h, 3 μM amounted to 1.6 ×10⁻⁶ cm/s. In data set [2], the hepatocyte CLint at 1 μM turned out to be 31 µL/min/1e6 cells. The “Extraction Ratio (ER)” value with human hepatocytes is reported as 0.82. Besides, in the data set with Sprague-Dawley rats, the “Mean cortical activation time (% vehicle treatment)” value was found to be 160.00 % vehicle treatment.
For `Cc1cccc2c1C1CCC(CC1)OC[C@H]1[C@@H](NS(C)(=O)=O)CCCN1C(=O)CO2` (stereo in doubt) [Compound 2] the same measures were 46, 0.69 ×10⁻⁶ cm/s, 28 µL/min/1e6 cells, 0.80 and 182.50 % vehicle treatment.
`CC[C@H](C)S(=O)(=O)N[C@H]1CCCN2C(=O)COc3ccccc3C3CCC(CC3)OC[C@@H]12` (stereo in doubt) [Compound 21]: the EC50 in data set [1] is below 10 nM. In the data set on MDR1, the efflux ratio at 2 h, 3 μM amounted to 52 and the Papp A→B at 2 h, 3 μM is 0.8 ×10⁻⁶ cm/s. In addition, the hepatocyte CLint at 1 μM in data set [2] came to 36 µL/min/1e6 cells. For the same compound, the “Extraction Ratio (ER)” value in the data set on human hepatocytes turned out to be 0.84.
For `O=C1COc2ccccc2[C@H]2CC[C@H](CC2)OCC2[C@@H](NS(=O)(=O)C3CCOC3)CCCN12` (stereo in doubt) [Compound 22] the same measures were below 10 nM, above 100, 0.18 ×10⁻⁶ cm/s, 13 µL/min/1e6 cells and 0.66.
On the same counts, the results for `C[C@H](C(F)(F)F)S(=O)(=O)N[C@H]1CCCN2C(=O)COc3ccccc3C3CCC(CC3)OC[C@@H]12` (stereo in doubt) [Compound 23] are below 10 nM, 87, 0.44 ×10⁻⁶ cm/s, 30 µL/min/1e6 cells and 0.82.
For `C[C@@H](C(F)(F)F)S(=O)(=O)N[C@H]1CCCN2C(=O)COc3ccccc3C3CCC(CC3)OC[C@@H]12` (stereo in doubt) [Compound 24] the same measures were below 10 nM, 43, 0.65 ×10⁻⁶ cm/s, 28 µL/min/1e6 cells and 0.81.
As to `CC[C@@H](C)S(=O)(=O)N[C@H]1CCCN2C(=O)COc3ccccc3C3CCC(CC3)OC[C@@H]12` (stereo in doubt) [Compound 25], the EC50 in data set [1] is below 10 nM. In the data set on MDR1, the efflux ratio at 2 h, 3 μM was 27 and the Papp A→B at 2 h, 3 μM was determined as 0.62 ×10⁻⁶ cm/s. In data set [2], the hepatocyte CLint at 1 μM is 35 µL/min/1e6 cells. Also, in the data set with human hepatocytes, the “Extraction Ratio (ER)” value amounted to 0.84.
On the same counts, the results for `O=C1COc2ccccc2[C@H]2CC[C@H](CC2)OCC2[C@@H](NS(=O)(=O)CF)CCCN12` (stereo in doubt) [Compound 38] are below 10 nM, 35, 1.32 ×10⁻⁶ cm/s, 18 µL/min/1e6 cells and 0.73.
For `CS(=O)(=O)N[C@H]1CCCN2C(=O)COc3ccccc3[C@H]3CC[C@@H](OCC12)[C@H](O)C3` (stereo in doubt) [Compound 45] the same measures were 10 to 1000 nM, above 5.3, below 0.14 ×10⁻⁶ cm/s, below 1.9 µL/min/1e6 cells and below 0.22.
On the same counts, the results for `CS(=O)(=O)N[C@H]1CCCN2C(=O)[C@@H](CO)Oc3ccccc3[C@H]3CC[C@H](CC3)OCC12` (stereo in doubt) [Compound 60] are below 10 nM, above 100, 0.041 ×10⁻⁶ cm/s, 3.7 µL/min/1e6 cells and 0.36.
`CS(=O)(=O)N[C@H]1CCCN2C(=O)[C@H](CO)Oc3ccccc3[C@H]3CC[C@H](CC3)OCC12` (stereo in doubt) [Compound 61] yielded an EC50 in data set [1] below 10 nM. Further, in the data set with MDR1, the efflux ratio at 2 h, 3 μM is above 100 and the Papp A→B at 2 h, 3 μM is below 0.034 ×10⁻⁶ cm/s. Besides, the hepatocyte CLint at 1 μM in data set [2] turned out to be 6.9 µL/min/1e6 cells. Further, in the data set with human hepatocytes, the “Extraction Ratio (ER)” value is given as 0.51.
On the same counts, the results for `CC[C@@H]1Oc2ccccc2[C@H]2CC[C@H](CC2)OCC2[C@@H](NS(C)(=O)=O)CCCN2C1=O` (stereo in doubt) [Compound 84] are below 10 nM, 100, 0.43 ×10⁻⁶ cm/s, 31 µL/min/1e6 cells and 0.82.
Compound `CC[C@H]1Oc2ccccc2[C@H]2CC[C@H](CC2)OCC2[C@@H](NS(C)(=O)=O)CCCN2C1=O` (stereo in doubt) [Compound 85] registered an EC50 in data set [1] below 10 nM. In the data set on MDR1, the efflux ratio at 2 h, 3 μM came out at 97 and the Papp A→B at 2 h, 3 μM was 0.45 ×10⁻⁶ cm/s. Besides, the hepatocyte CLint at 1 μM in data set [2] was determined as 37 µL/min/1e6 cells. Also, in the data set with human hepatocytes, the “Extraction Ratio (ER)” value was 0.84.
For `Cc1ccnc2c1[C@H]1CC[C@H](CC1)OCC1[C@@H](NS(=O)(=O)C3CCOC3)CCCN1C(=O)CO2` (stereo in doubt) [Compound 89] the same measures were below 10 nM, 49, 0.56 ×10⁻⁶ cm/s, 12 µL/min/1e6 cells and 0.64.
For `C[C@@H]1C[C@H](NS(C)(=O)=O)[C@@H]2CO[C@H]3CC[C@H](CC3)c3ccccc3OCC(=O)N12` [Compound 103] the same measures were 10 to 1000 nM, 28, 1.4 ×10⁻⁶ cm/s, 41 µL/min/1e6 cells and 0.86.
